Like-named read-outs stand apart in the source and are kept apart here.
Columns and labels:
[1] = target: T1, porcine liver PMPMEase (Sus scrofa, UniProt Q29550); conditions: for Kobs/[I]: PMPMEase 82.5 μg, pre-incubation 0-30 min, 100-fold dilution, RD-PNB substrate
T1 sequence (Q29550 19-566): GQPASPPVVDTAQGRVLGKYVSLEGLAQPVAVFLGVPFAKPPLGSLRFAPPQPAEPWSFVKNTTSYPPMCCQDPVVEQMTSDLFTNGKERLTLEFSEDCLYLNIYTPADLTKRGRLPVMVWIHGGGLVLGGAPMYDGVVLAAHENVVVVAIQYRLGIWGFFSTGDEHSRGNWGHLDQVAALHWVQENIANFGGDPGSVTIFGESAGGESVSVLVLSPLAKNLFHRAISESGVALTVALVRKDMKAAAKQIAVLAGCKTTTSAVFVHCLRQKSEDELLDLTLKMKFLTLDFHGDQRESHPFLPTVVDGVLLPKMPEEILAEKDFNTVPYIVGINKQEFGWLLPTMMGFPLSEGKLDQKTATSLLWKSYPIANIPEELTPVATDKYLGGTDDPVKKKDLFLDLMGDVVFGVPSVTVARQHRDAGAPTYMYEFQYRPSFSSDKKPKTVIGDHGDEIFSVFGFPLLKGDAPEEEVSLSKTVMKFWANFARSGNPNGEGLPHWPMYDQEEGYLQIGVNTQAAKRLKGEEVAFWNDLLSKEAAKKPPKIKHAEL

[2] = target: T1, porcine liver PMPMEase; conditions: for IC50: PMPMEase 1 μg, 15 min pre-incubation at 37°C, RD-PNB substrate
[3] = system: human neuroblastoma SH-SY5Y cells; experiment: Cell degeneration by microscopy images of treated cells; format: cell-based; conditions: 24 h exposure, up to 200 μM
[4] = system: human neuroblastoma SH-SY5Y cells; format: cell-based; conditions: for EC50: read-out: EC50 cell viability

| Molecule | Kobs/[I] [1] | IC50 [2] | Cell degeneration observed [3] | Kobs/[I] fold higher relative to PMSF [1] | IC50 fold lower relative to PMSF [2] | other results |
| --- | --- | --- | --- | --- | --- | --- |
| O=S(=O)(F)CCSc1ccccc1 [Compound L-50, Phenylthioethanesulfonyl fluoride] | 180 M⁻¹ s⁻¹ | 0.066 µM | – | – | – | – |
| O=S(=O)(F)Cc1ccccc1 [PMSF, phenylmethylsulfonyl fluoride, reference compound] | – | – | did not show degeneration even at 200 μM | – | – | Effect on viability of cultured cells ([4]; 24 h exposure): no significant effect |
| CC(C)=CCC/C(C)=C/CC/C(C)=C/CSCCS(=O)(=O)F [Compound L-28, 2-trans, trans-Farnesylthioethanesulfonyl fluoride] | 2000 M⁻¹ s⁻¹ | 0.048 µM | extensive degeneration | > 330 fold | 37 fold | EC50 ([4]; 24 h exposure, serum-free DMEM/F12): 66.5 µM; EC50 ([4]; 48 h exposure, serum-free DMEM/F12): 24.3 µM; EC50 ([4]; 72 h exposure, serum-free DMEM/F12): 13.6 µM |
| 2-trans-Geranylthioethanesulfonyl fluoride [Compound L-23] | 4100 M⁻¹ s⁻¹ | – | extensive degeneration | over 680 fold | 56 fold | EC50 [4]: 144 µM |
| CCCCCCCCCCSCCS(=O)(=O)F [Compound L-52, Decanylthioethanesulfonyl fluoride] | 1800 M⁻¹ s⁻¹ | 0.13 µM | – | – | – | – |
| O=S(=O)(F)CCSCc1ccccc1 [Compound L-51, Benzylthioethanesulfonyl fluoride] | 350 M⁻¹ s⁻¹ | 0.047 µM | – | – | – | Kobs/[I] fold lower than that for L-28 ([1]; relative to L-28): over 5 fold |

Source: PMC3313490 (Current Cancer Drug Targets, 2011)
